Results reported in the NIST ThermoML archive (doi:10.1021/je800517r).
“And” between values parts separate entries of the source, which are not always exact repeats. Identical values can stand only once. Numbers after ± are expanded uncertainties.

Assay: activity coefficient (dimensionless); of the first substance listed, at infinite dilution; xn = mol fraction of the nth substance listed
Settings: Liquid, comparative ebulliometry, circulation still, and differential distillation method, x1 = 0

CC(=O)N(C)C [N,N-dimethylethanamide] + O
Settings	activity coefficient
343.15 K	1.27 ± 0.08
343.51 K	1.29 ± 0.08
349.03 K	1.46 ± 0.09
351.15 K	1.37 ± 0.08
353.5 K	1.72 and 1.79
363.87 K	2.06 and 2.24
370.86 K	2.12 ± 0.13
372.28 K	2.05 ± 0.12

CNC(C)=O [N-methylacetamide] + O
Settings	activity coefficient
333.15 K	1.7 ± 0.1
343.15 K	1.78 ± 0.11
353.15 K	1.82 ± 0.11

CNC=O [N-methylformamide] + O
Settings	activity coefficient
333.15 K	1.37 ± 0.08
343.15 K	1.42 ± 0.09
353.15 K	1.44 ± 0.09
372.65 K	1.65 ± 0.1

CN(C)C=O [dimethylformamide] + O
Settings	activity coefficient
343.73 K	1.23 ± 0.07
349.05 K	1.27 ± 0.08
353.45 K	1.3 ± 0.08
357.91 K	1.3 ± 0.08
358.5 K	1.36 ± 0.08
363.82 K	1.35 ± 0.08
368.38 K	1.59 ± 0.1
371.62 K	1.54 ± 0.09
372 K	1.66 ± 0.1
